Test results as given in patent publication US11795460B2, “Compositions and methods for TTR gene editing and treating ATTR amyloidosis” (Intellia Therapeutics, Inc., priority 2017, dated 2023).

What was measured:
[1] = tested on: TTR; assay: TTR editing in primary cyno hepatocytes electroporated with Spy Cas9 protein and dgRNAs (Tables 10, 11); type: cell-based, cynomolgus monkey; conditions: primary cyno hepatocytes electroporated with Spy Cas9 protein (RNP) and cyno specific dgRNAs
Procedure: (§1) Primary liver hepatocytes. Primary human liver hepatocytes (PHH) and primary cynomolgus liver hepatocytes (PCH) (Gibco) were cultured per the manufacturer's protocol (Invitrogen, protocol 11.28.2012). In brief, the cells were thawed and resuspended in hepatocyte thawing medium with supplements (Gibco, Cat. CM7000) followed by centrifugation at 100 g for 10 minutes for human and 80 g for 4 minutes for cyno. The supernatant was discarded and the pelleted cells resuspended in hepatocyte plating medium plus supplement pack (Invitrogen, Cat. A1217601 and CM3000). Cells were counted and plated on Bio-coat collagen I coated 96-well plates (ThermoFisher, Cat. 877272) at a density of 33,000 cells/well for human or 60,000 cells/well for cyno (or 65,000 cells/well when assaying effects on TTR protein, described further below). Plated cells were allowed to settle and adhere for 6 or 24 hours in a tissue culture incubator at 37° C. and 5% CO2 atmosphere. After incubation cells were checked for monolayer formation and media was replaced with hepatocyte culture medium with serum-free supplement pack (Invitrogen, Cat. A1217601 and CM4000).
(§2) […] formation was performed prior to electroporation or transfection of Spy Cas9 protein loaded with guide RNAs (RNPs) onto cells. For dual guide (dgRNAs), individual crRNA and trRNA was pre-annealed by mixing equivalent amounts of reagent and incubating at 95° C. for 2 min and cooling to room temperature. Single guide (sgRNAs) were boiled at 95° C. for 2 min and cooling to room temperature. The boiled dgRNA or sgRNA was incubated with Spy Cas9 protein in Optimem for 10 minutes at room temperature to form a ribonucleoprotein (RNP) complex.
(§3) For RNP electroporation into primary human and cyno hepatocytes, the cells are thawed and resuspended in Lonza electroporation Primary Cell P3 buffer at a concentration of 2500 cells per μL for human hepatocytes and 3500 cells per μL for cyno hepatocytes. A volume of 20 μL of resuspended cells and 5 μL of RNP are mixed together per guide. 20 μL of the mixture is placed into a Lonza electroporation plate. The cells were electroporated using the Lonza nucleofector with the preset protocol EX-147. Post electroporation, the cells are transferred into a Biocoat plate containing pre-warmed maintenance media and placed in a tissue culture incubator at 37° C. and 5% CO2.
(§4) Transfected cells were harvested post-transfection at 24, 48, or 72 hours. The genomic DNA was extracted from each well of a 96-well plate using 50 μL/well BuccalAmp DNA Extraction solution (Epicentre, Cat. QE09050) per manufacturer's protocol. All DNA samples were subjected to PCR and subsequent NGS analyses, as described herein.
(§5) To quantitatively determine the efficiency of editing at the target location in the genome, sequencing was utilized to identify the presence of insertions and deletions introduced by gene editing.
(§6) Primers were designed around the target site within the gene of interest (e.g. TTR), and the genomic area of interest was amplified.
(§7) Additional PCR was performed per the manufacturer's protocols (Illumina) to add chemistry for sequencing. The amplicons were sequenced on an Illumina MiSeq instrument. The reads were aligned to a reference genome (e.g., the human reference genome (hg38), the cynomologus reference genome (mf5), the rat reference genome (rn6), or the mouse reference genome (mm10)) after eliminating those having low quality scores. The resulting files containing the reads were mapped to the reference genome (BAM files), where reads that overlapped the target region of interest were selected and the number of wild type reads versus the number of reads which contain an insertion, substitution, or deletion was calculated.
(§8) The editing percentage (e.g., the “editing efficiency” or “percent editing” or “indel frequency”) is defined as the total number of sequence reads with insertions/deletions (“indels”) or substitutions over the total number of sequence reads, including wild type. […]

[2] = tested on: TTR; assay: TTR editing in HUH7 cells transfected with Spy Cas9 mRNA and dgRNAs (Table 5); type: cell-based, human; conditions: HUH7 cells co-transfected with Spy Cas9 mRNA (SEQ ID NO:2) and dgRNAs
Procedure: HUH7 cell line. The human hepatocellular carcinoma cell line HUH7 (Japanese Collection of Research Bioresources Cell Bank, Cat. JCRB0403) was cultured in DMEM media supplemented with 10% fetal bovine serum. Cells were plated on at a density of 15,000 cells/well in a 96-well plate 20 hours prior to transfection. Cells were transfected with Lipofectamine MessengerMAX (ThermoFisher, Cat. LMRNA003) per the manufacturer's protocol. Cells were sequentially transfected with a lipoplex containing Spy Cas9 mRNA (100 ng), MessengerMAX (0.3 μL/well) and OptiMem followed by a separate lipoplex containing individual crRNA (25 nM), tracer RNA (25 nM), MessengerMAX (0.3 μL/well) and OptiMem.
as §4, §5, §6, §7
(§9) The editing percentage (e.g., the “editing efficiency” or “percent editing” or “indel frequency”) is defined as the total number of sequence reads with insertions/deletions (“indels”) or substitutions over the total number of sequence reads, including wild type.
(§10) Guides in dgRNA format targeting human TTR and the cynomologus matched sequences were delivered to HEK293 Cas9, HUH7 and HepG2 cell lines, as well as primary human hepatocytes and primary cynomolgus monkey hepatocytes as described in Example 1. Percent editing was determined for crRNAs comprising each guide sequence across each cell type and the guide sequences were then rank ordered based on highest % edit. The screening data for the guide sequences in Table 1 in all five cell lines are listed below (Table 4 through 11).

[3] = tested on: TTR; assay: TTR editing in HepG2 cells transfected with Spy Cas9 mRNA and dgRNAs (Table 6); type: cell-based, human; conditions: HepG2 cells co-transfected with Spy Cas9 mRNA (SEQ ID NO:2) and dgRNAs
Procedure: HepG2 cell line. The human hepatocellular carcinoma cell line HepG2 (American Type Culture Collection, Cat. HB-8065) was cultured in DMEM media supplemented with 10% fetal bovine serum. Cells were counted and plated on Bio-coat collagen I coated 96-well plates (ThermoFisher, Cat. 877272) at a density of 10,000 cells/well in a 96-well plate 24 hours prior to transfection. Cells were transfected with Lipofectamine 2000 (ThermoFisher, Cat. 11668019) per the manufacturer's protocol. Cells were sequentially transfected with lipoplex containing Spy Cas9 mRNA (100 ng), Lipofectamine 2000 (0.2 μL/well) and OptiMem followed by a separate lipoplex containing individual crRNA (25 nM), tracer RNA (25 nM), Lipofectamine 2000 (0.2 μL/well) and OptiMem.
as §4, §5, §6, §7, §9, §10

[4] = tested on: TTR; assay: TTR editing in HEK293_Cas9 cells transfected with dgRNAs (Table 4); type: cell-based, human; conditions: HEK293_Cas9 cells (constitutively express Spy Cas9) transfected with dgRNAs
Procedure: HEK293 Cas9 cell line. The human embryonic kidney adenocarcinoma cell line HEK293 constitutively expressing Spy Cas9 (“HEK293_Cas9”) was cultured in DMEM media supplemented with 10% fetal bovine serum and 500 μg/ml G418. Cells were plated at a density of 10,000 cells/well in a 96-well plate 24 hours prior to transfection. Cells were transfected with Lipofectamine RNAiMAX (ThermoFisher, Cat. 13778150) per the manufacturer's protocol. Cells were transfected with a lipoplex containing individual crRNA (25 nM), trRNA (25 nM), Lipofectamine RNAiMAX (0.3 μL/well) and OptiMem.
as §4, §5, §6, §7, §9, §10

[5] = tested on: TTR; assay: TTR editing in primary human hepatocytes transfected with Spy Cas9 mRNA and dgRNAs (Table 9); type: cell-based; conditions: dgRNA co-transfected with Spy Cas9 mRNA (SEQ ID NO:2)
Procedure: as §1
Lipofectamine RNAiMax (ThermoFisher, Cat. 13778150) based transfections were conducted as per the manufacturer's protocol. Cells were sequentially transfected with a lipoplex containing Spy Cas9 mRNA (100 ng), Lipofectamine RNAiMax (0.4 μL/well) and OptiMem followed by a separate lipoplex containing crRNA (25 nM) and tracer RNA (25 nM) or sgRNA (25 nM), Lipofectamine RNAiMax (0.4 μL/well) and OptiMem.
as §4, §5, §6, §7, §9, §10

[6] = tested on: TTR; assay: TTR editing in primary human hepatocytes electroporated with Spy Cas9 protein loaded with dgRNAs (Table 7); type: cell-based; conditions: dgRNA electroporated with Spy Cas9 protein (RNP)
Procedure: as §1, §2, §3, §4, §5, §6, §7, §8

[7] = tested on: TTR; assay: TTR editing in primary human hepatocytes transfected with Spy Cas9 protein (RNP) loaded with dgRNAs (Table 8); type: cell-based; conditions: dgRNA transfected with Spy Cas9 protein (RNP)
Procedure: as §1, §2
For RNP lipoplex transfections, cells were transfected with Lipofectamine RNAiMAX (ThermoFisher, Cat. 13778150) per the manufacturer's protocol. Cells were transfected with an RNP containing Spy Cas9 (10 nM), individual guide (10 nM), tracer RNA (10 nM), Lipofectamine RNAiMAX (1.0 μL/well) and OptiMem. RNP formation was performed as described above.
as §4, §5, §6, §7, §9
Guides in dgRNA format targeting human TTR and the cynomologus matched sequences were delivered to HEK293 Cas9, HUH7 and HepG2 cell lines, as well as primary human hepatocytes and primary cynomolgus monkey hepatocytes as described in Example 1. […]

Sequence | Avg % Deletion [2] | Avg % Edit [2] | Avg % Insert [2] | Avg % Deletion [3] | Avg % Edit [3] | Avg % Insert [3] | Avg % Deletion [4] | Avg % Edit [4] | Avg % Insert [4] | Avg % Deletion [5] | Avg % Edit [5] | Avg % Insert [5] | Avg % Deletion [6] | Avg % Edit [6] | Avg % Insert [6] | Avg % Deletion [7] | Avg % Edit [7] | Avg % Insert [7] | other results
AAAAGGCUGCUGAUGAGACC (tested as dual guide RNA, chemistry not given here) [CR005372] | – | – | – | – | – | – | – | – | – | – | – | – | – | – | – | – | – | – | Avg % Deletion [1]: 17.16%; Avg % Edit [1]: 17.98%; Avg % Insert [1]: 0.83%
CAUUGACAGCAGGACUGCCU (tested as dual guide RNA, chemistry not given here) [CR005365] | – | – | – | – | – | – | – | – | – | – | – | – | – | – | – | – | – | – | Avg % Deletion [1]: 64.85%; Avg % Edit [1]: 64.94%; Avg % Insert [1]: 0.10%
CACAUGCACGGCCACAUUGA (tested as dual guide RNA, chemistry not given here) [CR003350] | 41.64% | 52.91% | 13.43% | 4.44% | 29.60% | 25.16% | 16.77% | 22.31% | 5.54% | 10.33% | 26.63% | 16.33% | 5.73% | 28.13% | 22.40% | 5.07% | 24.84% | 19.77% | –
GGGGCUCAGCAGGGCGGCAA (tested as dual guide RNA, chemistry not given here) [CR003381] | 99.70% | 99.70% | 1.92% | 0.63% | 6.81% | 6.18% | 18.23% | 22.04% | 3.82% | 0.73% | 4.07% | 3.33% | 0.50% | 6.20% | 5.83% | 0.27% | 7.15% | 6.88% | –
GGGCGGCAAUGGUGUAGCGG (tested as dual guide RNA, chemistry not given here) [CR003379] | 16.48% | 19.18% | 3.38% | 2.04% | 19.74% | 17.70% | 20.98% | 26.32% | 5.34% | 1.27% | 13.20% | 12.00% | 0.27% | 6.57% | 6.30% | 0.34% | 16.86% | 16.51% | –
ACCUGGGAGCCAUUUGCCUC (tested as dual guide RNA, chemistry not given here) [CR003354] | 11.46% | 12.27% | 1.25% | 0.53% | 5.36% | 4.84% | 15.90% | 18.46% | 2.56% | 0.13% | 2.97% | 2.87% | 0.03% | 2.50% | 2.43% | 0.23% | 10.31% | 10.07% | –
GGCGGCAAUGGUGUAGCGGC (tested as dual guide RNA, chemistry not given here) [CR003378] | 32.27% | 40.73% | 9.73% | 1.34% | 8.16% | 6.82% | 16.48% | 20.97% | 4.49% | 1.37% | 9.80% | 8.50% | 0.73% | 4.60% | 3.87% | 0.42% | 8.66% | 8.24% | –
